Assay: Solubility of the charge transporting substance in 100 g of first / second solvent
Type: physicochemical
Conditions: 23° C., 1 atmosphere; for Solubility Y1: in 100 g of toluene (first solvent)
Experimental: The charge transporting layer satisfying the expressions (4-1) to (4-5) is formed by drying a coat of a charge-transporting-layer coating liquid containing the charge transporting substance, the binder resin, and the following first solvent and second solvent. Additionally, when the solubility of the charge transporting substance in 100 g of the first solvent in an environment at 23° C. under 1 atmosphere is designated as Y1(g), and the solubility of the charge transporting substance in 100 g of the second solvent in an environment at 23° C. under 1 atmosphere is designated as Y2(g), solubility Y1 and solubility Y2 satisfy the following expression (6).
Each of electrophotographic photosensitive members was produced in the same manner as in Example 1 except that the charge transporting substance represented by the formula (CTM-2), polyester resin A having the structural unit represented by the formula (1-18) and o-xylene in Example 1 were changed as shown in Table 1.

Solubility Y2 (in 100 g of acetophenone (second solvent)) [g]	Solubility Y2 (in 100 g of methyl benzoate (second solvent)) [g]	Solubility Y1 [g]	SMILES
8	8	20	C(/C=C/c1cccc(N(c2ccccc2)c2ccc(-c3ccc(N(c4ccccc4)c4cccc(/C=C/C=C/c5ccccc5)c4)cc3)cc2)c1)=C\c1ccccc1 [CTM-2]
–	–	25	Cc1ccc(N(C=C(c2ccccc2)c2ccccc2)c2ccc(-c3ccc(N(C=C(c4ccccc4)c4ccccc4)c4ccc(C)cc4C)cc3)cc2)c(C)c1 [CTM-3]

Reference: patent US20140212800A1, “ELECTROPHOTOGRAPHIC PHOTOSENSITIVE MEMBER, PROCESS CARTRIDGE AND ELECTROPHOTOGRAPHIC APPARATUS” (CANON KABUSHIKI KAISHA, priority 2013, published 2014)
